Test results from US7115617B2, “Amino-substituted pyrimidinyl derivatives and methods of use” (Amgen Inc., priority 2001, dated 2006).

Test system: 3T3 proliferation
Experiment: IGF-1-induced DNA synthesis (3H-thymidine incorporation)
Format: cell-based
Settings: Rattus norvegicus; activated overnight with 50 ng/mL IGF-1; read-out: inhibited 3T3 proliferation (IC50, thymidine incorporation)
Description: Human tumor cell lines or a rat fibroblast cell line are plated out in flat-well plates in complete medium and allowed to adhere overnight. The cells are then starved in medium containing 0.1% bovine serum albumin (BSA) overnight, pre-incubated for 1 h with or without dilutions of compound, then activated overnight with 50 ng/mL insulin-like growth factor (IGF-1). Proliferation is determined by the level of ^3H-thymidine incorporation into DNA. IC50's are determined by comparing the level of thymidine incorporation found in the presence of compound compared to controls.

Question: Which IC50 does the source give for COc1cc(Nc2nccc(Nc3cc(-c4ccccc4)on3)n2)cc(OC)c1OC [Example 15, N^2-(3,4,5-Trimethoxyphenyl)-N^4-(5-phenylisoxazol-3-yl)-2,4-pyrimidinediamine] here?
Answer: < 150 nM

Question: COc1cc(Nc2nccc(Nc3cc(-c4ccccc4)on3)n2)ccc1N1CCOCC1 [Example 14, N^2-(3-Methoxy-4-morpholin-4-yl-phenyl)-N^4-(5-phenyl-isoxazol-3-yl)-pyrimidine-2,4-diamine] was tested. Which IC50 did it give?
Answer: < 150 nM

Question: For COc1cc(Nc2nccc(Nc3cc(C4CCCCC4)no3)n2)cc(OC)c1OC [Example 17, N^2-(3,4,5-Trimethoxyphenyl)-N^4-(3-cyclohexylisoxazol-5-yl)-2,4-pyrimidinediamine], which IC50 is on record?
Answer: < 150 nM

Question: For COc1cc(C)c(Nc2nccc(Nc3cc(C45CC6CC(CC(C6)C4)C5)on3)n2)cc1OC [Example 18, N^2-(4,5-Dimethoxy-2-methylphenyl)-N^4-(5-adamantylisoxazol-3-yl)-2,4-pyrimidinediamine], which IC50 is on record?
Answer: < 150 nM
